# Experimental data: ChEMBL document CHEMBL1130969, “Potent 3-spiropiperidine growth hormone secretagogues” (Bioorg Med Chem Lett, 1998)
# Biological target: Growth hormone secretagogue receptor type 1 (Rattus norvegicus, UniProt O08725)
# Experiment: In vitro growth hormone release was determined in rat pituitary cell assay
# Type: functional, cell-based, Pituitary gland cell
# Conditions: not given; call rule not given here
# Sequence of Growth hormone secretagogue receptor type 1 (O08725 whole entry): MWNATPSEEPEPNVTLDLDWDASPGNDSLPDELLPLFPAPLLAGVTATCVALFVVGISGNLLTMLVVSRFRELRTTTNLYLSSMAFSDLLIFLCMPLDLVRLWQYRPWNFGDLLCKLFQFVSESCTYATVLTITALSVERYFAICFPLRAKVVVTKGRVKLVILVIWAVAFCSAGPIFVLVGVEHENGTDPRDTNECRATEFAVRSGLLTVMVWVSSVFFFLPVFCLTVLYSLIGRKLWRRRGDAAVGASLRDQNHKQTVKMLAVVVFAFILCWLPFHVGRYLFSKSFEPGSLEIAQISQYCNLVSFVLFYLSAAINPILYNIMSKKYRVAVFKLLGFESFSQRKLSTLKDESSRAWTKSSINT
row,SMILES,EC50
1,CC(C)(N)C(=O)N[C@H](Cc1c[nH]c2ccccc12)C(=O)N1CCC2(CC1)Cc1ccccc1C2,37 nM
2,CC(C)(N)C(=O)N[C@H](Cc1c[nH]c2ccccc12)C(=O)N1CCC[C@]2(CC(=O)c3ccccc3O2)C1,57 nM
3,CC(C)(N)CC(=O)N[C@@H]1CCc2ccccc2N(Cc2ccc(-c3ccccc3-c3nnn[nH]3)cc2)C1=O,60 nM
4,CC(C)(N)C(=O)N[C@H](Cc1c[nH]c2ccccc12)C(=O)N1CCC2(CC1)CC(=O)c1ccccc1O2,37 nM
5,CC(C)(N)C(=O)N[C@H](Cc1c[nH]c2ccccc12)C(=O)N1CCC2(CCCc3ccccc32)CC1,66 nM
6,CC(C)(N)C(=O)N[C@H](Cc1c[nH]c2ccccc12)C(=O)N1CCC2(CC1)Cc1ccccc1C2=O,42 nM
7,CC(C)(N)C(=O)N[C@H](Cc1c[nH]c2ccccc12)C(=O)N1CCCC2(Cc3ccccc3C2)C1,60 nM
8,CC(C)(N)C(=O)N[C@H](Cc1c[nH]c2ccccc12)C(=O)N1CCCC2(CCc3ccccc32)C1 (stereo partly drawn),630 nM

# Other lines, results leading:
row,EC50,SMILES
1,14 nM,CC(C)(N)C(=O)N[C@H](Cc1c[nH]c2ccccc12)C(=O)N1CCC2(CCc3ccccc32)CC1 [L-162752]
2,1.2 nM,CC(C)(N)C(=O)N[C@H](Cc1c[nH]c2ccccc12)C(=O)N1CCC[C@@]2(CC(=O)c3ccccc3O2)C1
3,20 nM,CC(C)(N)C(=O)N[C@H](Cc1c[nH]c2ccccc12)C(=O)N1CCCC2(Cc3ccccc3C2=O)C1 (stereo partly drawn)
4,25 nM,CC(C)(N)C(=O)N[C@H](Cc1c[nH]c2ccccc12)C(=O)N1CCC2(CCc3ccccc3O2)CC1
5,2.9 nM,CC(C)(N)C(=O)N[C@H](Cc1c[nH]c2ccccc12)C(=O)N1CCCC2(CCc3ccccc3O2)C1 (stereo partly drawn)
6,1.8 nM,CC(C)(N)C(=O)N[C@H](Cc1c[nH]c2ccccc12)C(=O)N1CCCC2(CC(=O)c3ccccc3O2)C1 (stereo partly drawn)
7,16 nM,CC(C)(N)C(=O)N[C@H](Cc1c[nH]c2ccccc12)C(=O)N1CCC2(CC1)CC(O)c1ccccc1O2 (stereo partly drawn)
8,1.2 nM,CC(C)(N)C(=O)N[C@H](Cc1c[nH]c2ccccc12)C(=O)N1CCCC2(CC(O)c3ccccc3O2)C1 (stereo partly drawn)
9,19 nM,CC(C)(N)C(=O)N[C@H](Cc1c[nH]c2ccccc12)C(=O)N1CCC2(CC1)Cc1ccccc1C2O (stereo partly drawn)

# Species on record: Rattus norvegicus
# Experiment: In vitro growth hormone release was determined in rat pituitary cell assay; NA means not active
# Type: functional
# Conditions: pituitary gland cell
row,SMILES,EC50
1,CC(C)(N)C(=O)N[C@H](Cc1c[nH]c2ccccc12)C(=O)N1CCCC2(Cc3ccccc3C2O)C1 (stereo partly drawn),Not Active
